Test results taken from ChEMBL document CHEMBL1201862, “PubChem BioAssay data set” (2004).
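Assay format: 96-well plates, 48-hour exposure. GI50: concentration for 50% inhibition of growth.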 Activity calls are given as the source filed them. Rule as the data show it: active = GI50 up to about 1.1 µM and inactive = higher.

How the values were obtained:
Assay in all cases: NCI-60 cell line screen, 48 h
[1] = test system: LOX IMVI
[2] = test system: U-251
[3] = test system: NCI-H226
[4] = test system: SW-620
[5] = test system: MCF7
[6] = test system: SF-268
[7] = test system: KM12
[8] = test system: SR
[9] = test system: NCI-H23
[10] = test system: TK-10
[11] = test system: COLO 205
[12] = test system: OVCAR-4
[13] = test system: UO-31
[14] = test system: CAKI-1
[15] = test system: RXF 393
[16] = test system: UACC-257
[17] = test system: OVCAR-8
[18] = test system: ACHN
[19] = test system: M14
[20] = test system: HCC 2998

Measured: GI50

Cn1c(=O)c2nc(SCCN3CCOCC3)[nH]c2n(C)c1=S
inactive: [1] > 100 µM | [2] > 100 µM | [3] > 100 µM | [4] > 100 µM | [5] > 100 µM | [6] > 100 µM | [7] > 100 µM | [8] > 100 µM | [9] > 100 µM | [10] > 100 µM | [11] > 100 µM | [12] > 100 µM | [13] > 100 µM | [14] > 100 µM | [15] > 100 µM | [16] > 100 µM | [17] > 100 µM | [18] > 100 µM | [19] > 100 µM

COC(=O)N1C[C@@]2(C=CC3(CC2)OCCO3)c2ccccc21
inactive: [1] > 100 µM | [2] 41.1 µM | [4] 40.8 µM | [5] 96.4 µM | [7] 37.8 µM | [8] 49.7 µM | [9] 95.7 µM | [10] > 100 µM | [11] > 100 µM | [12] > 100 µM | [13] > 100 µM | [14] > 100 µM | [16] 71.3 µM | [17] 39.5 µM | [20] > 100 µM | [18] > 100 µM | [19] > 100 µM

C[C@]12CCC(N3CCCC3)CC1=CC[C@@H]1[C@@H]2CC[C@]2(C)C(O)[C@H](n3ccnc3)C[C@@H]12 (stereo partly drawn)
inactive: [1] 34.4 µM | [2] 75.9 µM | [3] > 100 µM | [4] 45.7 µM | [5] 45 µM | [6] > 10 µM | [7] > 10 µM | [8] 15.3 µM | [9] 53.6 µM | [10] > 100 µM | [11] 30.3 µM | [12] 73.6 µM | [13] 44.6 µM | [14] > 100 µM | [15] 17.4 µM | [16] 38.6 µM | [17] 61.2 µM | [18] 36.7 µM | [19] 15.7 µM

Cc1nn(-c2ccccc2)c2c1N=C(C(=O)O)CC(c1ccccc1)=N2
inactive: [1] > 10 µM | [2] > 10 µM | [4] > 10 µM | [5] > 10 µM | [6] > 10 µM | [7] > 10 µM | [8] > 10 µM | [9] > 10 µM | [10] > 10 µM | [11] > 10 µM | [12] > 10 µM | [14] > 10 µM | [16] > 10 µM | [17] > 10 µM | [20] > 10 µM | [18] > 10 µM | [19] > 10 µM

c1cc2cc(c1)CN1CCNCCN(CCNCC1)Cc1cccc(c1)CN1CCNCCN(CCNCC1)C2
inactive: [1] > 100 µM | [2] > 100 µM | [4] > 100 µM | [5] > 100 µM | [6] > 100 µM | [7] > 100 µM | [8] 78 µM | [9] > 100 µM | [10] > 100 µM | [11] > 100 µM | [12] > 100 µM | [13] > 100 µM | [16] > 100 µM | [17] > 100 µM | [20] > 100 µM | [18] > 100 µM | [19] > 100 µM

COc1cc(S(=O)(=O)Nc2nc(-c3ccc(N4C(=O)/C(=C/c5ccccc5[N+](=O)[O-])N=C4c4ccccc4)cc3)cs2)ccc1Cl
inactive: [1] 50.2 µM | [2] 46.6 µM | [3] > 100 µM | [4] > 100 µM | [5] 34.6 µM | [6] 22.6 µM | [7] 73.1 µM | [8] 34.3 µM | [9] 29.9 µM | [10] > 100 µM | [11] > 100 µM | [12] > 100 µM | [13] > 100 µM | [14] > 100 µM | [15] 63.5 µM | [16] > 100 µM | [17] > 100 µM | [18] > 100 µM | [19] > 100 µM
